± gives the expanded uncertainty stated by the source.
Conditions: Crystal; DTA

- Triple point temperature: 453.4 ± 1.1 K
Structure (SMILES): Nc1ccc(O)c2c1C(=O)c1c(O)cc(Br)c(N)c1C2=O [1,5-diaminobromo-4,8-dihydroxyanthraquinone]

— the NIST ThermoML archive (doi:10.1021/je800646h)
